Laboratory results from US20260327214A1, “1,3,4-OXADIAZOLE DERIVATIVE COMPOUNDS AS HISTONE DEACETYLASE 6 INHIBITOR, AND USES THEREOF” (CHONG KUN DANG PHARMACEUTICAL CORP., priority 2022, published 2026).
pIC50: −log10 of the molar value.

Legend:
human recombinant HDAC1 = target: T1, human recombinant HDAC1 (Homo sapiens, UniProt Q13547); test: HDAC1 enzyme activity inhibition test (HDAC Fluorometric Drug Discovery Kit); format: biochemical; settings: 30° C., 60 minutes, 10 μM substrate
T1 construct: purchased Enzo Life Science BML-SE456
Method: (§1) The following experiment was conducted to confirm the HDAC6 selectivity of the compound represented by Chemical Formula I of the present invention through the HDAC1 and HDAC6 enzyme activity inhibition test.
(§2) HDAC enzyme activity was measured using HDAC Fluorometric Drug Discovery Kit (BML-AK511, 516) manufactured by Enzo Life Science. For the HDAC1 enzyme activity test, human recombinant HDAC1 (BML-SE456) was used as an enzyme source and Fluor de Lys-®-″SIRT1 (BNL-KI177) was used as a substrate. The 5-fold diluted compound was dispensed in a 96-well plate, 0.3 μg of enzyme and 10 μM substrate were added to each well and reacted at 30° C. for 60 minutes, and Fluor de Lys® Developer II(BML-KI176) was added and reacted for 30 minutes to complete the reaction. Then, the fluorescence value (Ex 360, Em 460) was measured using a multiplate reader (Flexstation 3, Molecular Device). The HDAC6 enzyme was tested using the same protocol as the HDAC1 enzyme activity test method employing human recombinant HDAC6 (382180) from Calbiochem. For the final result, each […] value was calculated using the GraphPad Prism 4.0 program.

human recombinant HDAC6 = target: T2, human recombinant HDAC6 (Homo sapiens, UniProt Q9UBN7); test: HDAC6 enzyme activity inhibition test (HDAC Fluorometric Drug Discovery Kit); format: biochemical; settings: for HDAC6 selectivity (fold): HDAC6 over HDAC1; for pIC50: human recombinant HDAC6, same protocol as HDAC1
T2 construct: purchased Calbiochem 382180
T2 sequence (Q9UBN7 1-1215): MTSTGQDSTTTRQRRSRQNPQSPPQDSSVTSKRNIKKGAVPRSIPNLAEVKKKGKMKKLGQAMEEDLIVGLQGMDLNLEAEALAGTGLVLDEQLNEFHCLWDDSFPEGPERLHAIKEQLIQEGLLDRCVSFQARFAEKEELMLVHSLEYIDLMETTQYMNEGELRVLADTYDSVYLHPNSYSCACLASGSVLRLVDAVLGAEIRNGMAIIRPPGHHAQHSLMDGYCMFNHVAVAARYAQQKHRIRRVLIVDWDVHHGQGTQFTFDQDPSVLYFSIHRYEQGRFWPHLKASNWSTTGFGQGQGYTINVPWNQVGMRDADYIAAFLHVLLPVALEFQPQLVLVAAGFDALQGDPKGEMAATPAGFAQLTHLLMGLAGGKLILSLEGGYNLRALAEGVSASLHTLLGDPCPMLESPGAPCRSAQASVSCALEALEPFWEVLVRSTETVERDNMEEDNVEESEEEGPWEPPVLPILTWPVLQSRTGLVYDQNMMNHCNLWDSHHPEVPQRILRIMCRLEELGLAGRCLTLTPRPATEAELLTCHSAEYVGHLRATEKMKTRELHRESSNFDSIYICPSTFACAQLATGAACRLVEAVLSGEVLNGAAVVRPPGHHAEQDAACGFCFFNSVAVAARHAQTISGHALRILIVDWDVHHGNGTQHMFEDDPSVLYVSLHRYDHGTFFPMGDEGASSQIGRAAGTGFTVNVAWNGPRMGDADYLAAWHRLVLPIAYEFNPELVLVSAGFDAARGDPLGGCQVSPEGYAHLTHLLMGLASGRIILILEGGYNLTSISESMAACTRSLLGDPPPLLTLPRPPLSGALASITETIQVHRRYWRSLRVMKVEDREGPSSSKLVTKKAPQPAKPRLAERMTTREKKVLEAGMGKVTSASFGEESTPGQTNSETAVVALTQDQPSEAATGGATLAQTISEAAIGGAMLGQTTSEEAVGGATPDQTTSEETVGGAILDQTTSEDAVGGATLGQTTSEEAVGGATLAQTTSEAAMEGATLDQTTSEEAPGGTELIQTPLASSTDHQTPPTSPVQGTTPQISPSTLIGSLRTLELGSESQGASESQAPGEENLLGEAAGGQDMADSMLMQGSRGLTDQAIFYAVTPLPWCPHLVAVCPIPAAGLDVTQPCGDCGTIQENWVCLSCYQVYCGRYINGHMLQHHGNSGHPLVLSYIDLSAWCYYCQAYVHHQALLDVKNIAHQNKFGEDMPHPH
Method: as §1, §2

T1 sequence (Q13547 whole entry): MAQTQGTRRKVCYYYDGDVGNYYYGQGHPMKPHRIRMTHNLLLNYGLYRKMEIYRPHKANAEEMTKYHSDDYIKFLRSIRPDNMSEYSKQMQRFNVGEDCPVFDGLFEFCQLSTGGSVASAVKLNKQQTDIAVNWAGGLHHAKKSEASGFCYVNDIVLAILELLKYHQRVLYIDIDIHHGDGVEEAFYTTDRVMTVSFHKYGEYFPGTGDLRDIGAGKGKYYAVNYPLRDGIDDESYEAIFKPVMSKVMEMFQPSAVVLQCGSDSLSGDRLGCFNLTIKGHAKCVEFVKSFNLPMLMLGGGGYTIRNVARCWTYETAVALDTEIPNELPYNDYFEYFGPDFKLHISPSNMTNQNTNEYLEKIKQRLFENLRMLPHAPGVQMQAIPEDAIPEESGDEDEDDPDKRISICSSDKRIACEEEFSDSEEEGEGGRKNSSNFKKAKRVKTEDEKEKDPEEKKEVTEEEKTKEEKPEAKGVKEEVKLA

pIC50 (human recombinant HDAC1)	HDAC6 selectivity (fold) (human recombinant HDAC6)	pIC50 (human recombinant HDAC6)	SMILES
< 4.30	479	6.98	CC(C)N1CCN(c2ccc(-c3nn(Cc4ccc(-c5nnc(C(F)F)o5)cn4)c(=O)o3)cc2)CC1 [Compound 22, 3-[[5-[5-(difluoromethyl)-1,3,4-oxadiazol-2-yl]-2-pyridyl]methyl]-5-[4-(4-isopropylpiperazin-1-yl)phenyl]-1,3,4-oxadiazol-2-one]
< 4.30	942	7.27	O=c1oc(-c2ccc(N3CCNCC3)cc2F)nn1Cc1ccc(-c2nnc(C(F)F)o2)cn1 [Compound 23, 3-[[5-[5-(difluoromethyl)-1,3,4-oxadiazol-2-yl]-2-pyridyl]methyl]-5-(2-fluoro-4-piperazin-1-yl-phenyl)-1,3,4-oxadiazol-2-one]
< 4.30	487	6.99	CN1CCN(c2ccc(-c3nn(Cc4ccc(-c5nnc(C(F)F)o5)cn4)c(=O)o3)c(F)c2)CC1 [Compound 24, 3-[[5-[5-(difluoromethyl)-1,3,4-oxadiazol-2-yl]-2-pyridyl]methyl]-5-[2-fluoro-4-(4-methylpiperazin-1-yl)phenyl]-1,3,4-oxadiazol-2-one]
< 4.30	642	7.11	CC(C)N1CCN(c2ccc(-c3nn(Cc4ccc(-c5nnc(C(F)F)o5)cn4)c(=O)o3)c(F)c2)CC1 [Compound 25, 3-[[5-[5-(difluoromethyl)-1,3,4-oxadiazol-2-yl]-2-pyridyl]methyl]-5-[2-fluoro-4-(4-isopropylpiperazin-1-yl)phenyl]-1,3,4-oxadiazol-2-one]
< 4.30	503	7.00	O=c1oc(-c2cccc(C3CCN(C4COC4)CC3)c2F)nn1Cc1ccc(-c2nnc(C(F)F)o2)cn1 [Compound 26, 3-[[5-[5-(difluoromethyl)-1,3,4-oxadiazol-2-yl]-2-pyridyl]methyl]-5-[2-fluoro-3-[1-(oxetan-3-yl)-4-piperidyl]phenyl]-1,3,4-oxadiazol-2-one]
< 4.30	420	6.92	CN1CC(N2CCC(c3cccc(-c4nn(Cc5ccc(-c6nnc(C(F)F)o6)cn5)c(=O)o4)c3F)CC2)C1 [Compound 27, 3-[[5-[5-(difluoromethyl)-1,3,4-oxadiazol-2-yl]-2-pyridyl]methyl]-5-[2-fluoro-3-[1-(1-methylazetidin-3-yl)-4-piperidyl]phenyl]-1,3,4-oxadiazol-2-one]
< 4.30	626	7.10	CC(=O)N1CC(N2CCC(c3cccc(-c4nn(Cc5ccc(-c6nnc(C(F)F)o6)cn5)c(=O)o4)c3F)CC2)C1 [Compound 28, 5-[3-[1-(1-acetylazetidine-3-yl)-4-piperidyl]-2-fluoro-phenyl]-3-[[5-[5-(difluoromethyl)-1,3,4-oxadiazol-2-yl]-2-pyridyl]methyl]-1,3,4-oxadiazol-2-one]
< 4.30	745	7.17	CN1CCC(c2ccc(-c3nn(Cc4ccc(-c5nnc(C(F)F)o5)cn4)c(=O)o3)cc2)CC1 [Compound 29, 3-[[5-[5-(difluoromethyl)-1,3,4-oxadiazol-2-yl]-2-pyridyl]methyl]-5-[4-(1-methyl-4-piperidyl)phenyl]-1,3,4-oxadiazol-2-one]
< 4.30	518	7.02	CC(C)N1CCC(c2ccc(-c3nn(Cc4ccc(-c5nnc(C(F)F)o5)cn4)c(=O)o3)cc2)CC1 [Compound 30, 3-[[5-[5-(difluoromethyl)-1,3,4-oxadiazol-2-yl]-2-pyridyl]methyl]-5-[4-(1-isopropyl-4-piperidyl)phenyl]-1,3,4-oxadiazol-2-one]
< 4.30	643	7.11	Cn1ccc2ccc(-c3nn(Cc4ccc(-c5nnc(C(F)F)o5)cn4)c(=O)o3)cc21 [Compound 31, 3-[[5-[5-(difluoromethyl)-1,3,4-oxadiazol-2-yl]-2-pyridyl]methyl]-5-(1-methylindol-6-yl)-1,3,4-oxadiazol-2-one]
< 4.30	774	7.19	Cn1ccc2cc(-c3nn(Cc4ccc(-c5nnc(C(F)F)o5)cn4)c(=O)o3)cnc21 [Compound 32, 3-[[5-[5-(difluoromethyl)-1,3,4-oxadiazol-2-yl]-2-pyridyl]methyl]-5-(1-methylpyrrolo[2,3-b]pyridin-5-yl)-1,3,4-oxadiazol-2-one]
< 4.30	1506	7.48	O=c1oc(-c2ccc3cc[nH]c3c2)nn1Cc1ccc(-c2nnc(C(F)F)o2)cn1 [Compound 33, 3-[[5-[5-(difluoromethyl)-1,3,4-oxadiazol-2-yl]-2-pyridyl]methyl]-5-(1H-indole-6-yl)-1,3,4-oxadiazol-2-one]
< 4.30	1695	7.53	O=c1oc(-c2cccc3[nH]ccc23)nn1Cc1ccc(-c2nnc(C(F)F)o2)cn1 [Compound 34, 3-[[5-[5-(difluoromethyl)-1,3,4-oxadiazol-2-yl]-2-pyridyl]methyl]-5-(1H-indol-4-yl)-1,3,4-oxadiazol-2-one]
< 4.30	643	7.11	O=c1oc(-c2cccc3[nH]ccc23)nn1Cc1ncc(-c2nnc(C(F)F)o2)cc1F [Compound 35, 3-[[5-[5-(difluoromethyl)-1,3,4-oxadiazol-2-yl]-3-fluoro-2-pyridyl]methyl]-5-(1H-indol-4-yl)-1,3,4-oxadiazol-2-one]
< 4.30	640	7.11	O=c1oc(-c2cccc(N3CCNCC3)c2)nn1Cc1ccc(-c2nnc(C(F)F)o2)cn1 [Compound 36, 3-[[5-[5-(difluoromethyl)-1,3,4-oxadiazol-2-yl]-2-pyridyl]methyl]-5-(3-piperazin-1-ylphenyl)-1,3,4-oxadiazol-2-one]
< 4.30	512	7.01	CN1CCN(c2cccc(-c3nn(Cc4ccc(-c5nnc(C(F)F)o5)cn4)c(=O)o3)c2)CC1 [Compound 37, 3-[[5-[5-(difluoromethyl)-1,3,4-oxadiazol-2-yl]-2-pyridyl]methyl]-5-[3-(4-methylpiperazin-1-yl)phenyl]-1,3,4-oxadiazol-2-one]
< 4.30	988	7.30	CC(C)N1CCN(c2cccc(-c3nn(Cc4ccc(-c5nnc(C(F)F)o5)cn4)c(=O)o3)c2)CC1 [Compound 38, 3-[[5-[5-(difluoromethyl)-1,3,4-oxadiazol-2-yl]-2-pyridyl]methyl]-5-[3-(4-isopropylpiperazin-1-yl)phenyl]-1,3,4-oxadiazol-2-one]
< 4.30	605	7.08	O=c1oc(-c2cccc(N3CCN(C4CCC4)CC3)c2)nn1Cc1ccc(-c2nnc(C(F)F)o2)cn1 [Compound 39, 5-[3-(4-cyclobutylpiperazin-1-yl)phenyl]-3-[[5-[5-(difluoromethyl)-1,3,4-oxadiazol-2-yl]-2-pyridyl]methyl]-1,3,4-oxadiazol-2-one]
